Data reported in patent US10052306B2 (LUC THERAPEUTICS, INC., priority 2013, dated 2018).

How the values were obtained:
NR1/NR2B [1] = biological target: NR1/NR2B (Homo sapiens (Human), UniProt Q13224); assay: Cell assay: FDSS Ca2+ influx inhibition in HEK293 cells expressing NR1/NR2B; details: read-out: NR2B NAM IC50; HEK293 cells expressing NR1/NR2B, Ca2+ influx;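 further: Fluo-8 Ca2+ signal read on Hamamatsu FDSS 6000 after glutamate, glycine and Ca2+ challenge following 10 min compound preincubation, end/baseline fluorescence ratio compared with MK801 control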
NR1/NR2B [2] = biological target: NR1/NR2B (Homo sapiens (Human), UniProt Q05586+Q13224); assay: as above; details: Binned Activity, HEK293 cells expressing NR1/NR2B, Ca2+ influx; binned NR2B NAM IC50
Chain of NR1/NR2B (Homo sapiens (Human), UniProt Q05586+Q13224) (Q13224 27-1484, other chains not shown): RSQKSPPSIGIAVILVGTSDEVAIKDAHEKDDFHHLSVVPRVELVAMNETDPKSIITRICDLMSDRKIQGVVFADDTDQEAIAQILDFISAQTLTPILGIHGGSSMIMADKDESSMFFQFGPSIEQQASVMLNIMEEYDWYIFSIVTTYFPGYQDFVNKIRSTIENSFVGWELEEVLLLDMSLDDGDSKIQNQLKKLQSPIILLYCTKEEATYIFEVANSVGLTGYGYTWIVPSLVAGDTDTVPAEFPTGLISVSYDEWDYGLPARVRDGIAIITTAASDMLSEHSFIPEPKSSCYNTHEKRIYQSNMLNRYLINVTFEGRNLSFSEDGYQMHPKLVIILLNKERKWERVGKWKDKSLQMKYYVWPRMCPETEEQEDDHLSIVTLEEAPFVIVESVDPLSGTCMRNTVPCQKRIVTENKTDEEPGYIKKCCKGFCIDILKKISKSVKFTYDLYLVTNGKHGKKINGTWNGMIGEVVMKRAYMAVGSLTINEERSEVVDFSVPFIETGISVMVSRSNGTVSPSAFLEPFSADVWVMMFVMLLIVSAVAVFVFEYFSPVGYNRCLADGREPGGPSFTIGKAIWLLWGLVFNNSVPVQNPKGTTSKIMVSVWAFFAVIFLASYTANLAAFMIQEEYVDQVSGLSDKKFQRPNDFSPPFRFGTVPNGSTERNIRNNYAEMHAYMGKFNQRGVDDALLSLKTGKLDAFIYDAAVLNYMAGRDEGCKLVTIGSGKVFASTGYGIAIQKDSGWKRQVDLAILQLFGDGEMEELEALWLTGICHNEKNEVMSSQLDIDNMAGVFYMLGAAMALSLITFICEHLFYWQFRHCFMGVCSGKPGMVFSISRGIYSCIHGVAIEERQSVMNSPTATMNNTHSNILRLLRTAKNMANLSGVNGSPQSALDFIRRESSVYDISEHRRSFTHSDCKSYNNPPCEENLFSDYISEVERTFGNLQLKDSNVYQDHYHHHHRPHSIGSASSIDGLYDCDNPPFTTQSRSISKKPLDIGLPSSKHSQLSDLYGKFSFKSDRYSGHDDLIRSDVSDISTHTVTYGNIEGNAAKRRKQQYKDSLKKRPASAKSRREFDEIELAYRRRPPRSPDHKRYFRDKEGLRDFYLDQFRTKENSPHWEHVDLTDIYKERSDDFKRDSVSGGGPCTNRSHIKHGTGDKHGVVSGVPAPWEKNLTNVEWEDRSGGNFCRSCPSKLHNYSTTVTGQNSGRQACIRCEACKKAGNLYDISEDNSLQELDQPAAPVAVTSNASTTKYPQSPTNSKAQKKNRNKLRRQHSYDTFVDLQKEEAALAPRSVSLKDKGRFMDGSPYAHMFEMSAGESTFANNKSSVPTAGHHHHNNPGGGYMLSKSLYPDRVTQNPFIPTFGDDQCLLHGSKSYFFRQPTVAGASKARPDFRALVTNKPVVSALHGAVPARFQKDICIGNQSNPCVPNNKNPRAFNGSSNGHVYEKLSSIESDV

Chain of NR1/NR2B (Homo sapiens (Human), UniProt Q13224) (Q13224 27-1484, other chains not shown): as above

IC50 (NR1/NR2B [1]) [µM]	IC50 (NR1/NR2B [2]) [µM]	SMILES
10	> 10	O=C(CN1C[C@@H]2C[C@@](O)(Cc3ccccc3)C[C@@H]2C1)c1ccc(O)c(F)n1 [Example 190, 2-((3aR,5r,6aS)-5-benzyl-5-hydroxyhexahydrocyclo-penta[c]pyrrol-2(1H)-yl)-1-(6-fluoro-5-hydroxypyridin-2-yl)ethanone]
7.61	1 to 10	COc1ccc(C[C@]2(O)C[C@H]3CN(CC(=O)c4ccc(O)cn4)C[C@H]3C2)cc1 [Example 192, 2-[(3aR,5R,6aS)-5-hydroxy-5-[(4-methoxyphenyl)methyl]-octahydrocyclopenta[c]pyrrol-2-yl]-1-(5-hydroxypyridin-2-yl)ethan-1-one]
10	> 10	COc1cccc(C[C@]2(O)C[C@H]3CN(CC(=O)c4ccc(O)cn4)C[C@H]3C2)c1 [Example 193, 2-((3aR,5r,6aS)-5-hydroxy-5-(3-meth-oxybenzyl)hexahydro-cyclopenta[c]pyrrol-2(1H)-yl)-1-(5-hydroxypyridin-2-yl)ethanone]
0.0981	< 0.1	COc1cccc(C[C@]2(O)C[C@H]3CN(CC(=O)c4ccc(O)cc4)C[C@H]3C2)c1 [Example 194, 2-((3aR,5r,6aS)-5-hydroxy-5-(3-meth-oxybenzyl)hexahydro-cyclopenta[c]pyrrol-2(1H)-yl)-1-(4-hydroxyphenyl)ethanone]
10	> 10	CO[C@@]1(Cc2ccccc2)C[C@H]2CN(CC(=O)c3ccc(O)c(F)n3)C[C@H]2C1 [Example 197, 2-((3aR,5r,6aS)-5-benzyl-5-methoxyhexahydrocyclo-penta[c]pyrrol-2(1H)-yl)-1-(6-fluoro-5-hydroxypyridin-2-yl)ethanone]
10	> 10	COc1cccc(C[C@]2(O)C[C@H]3CN(CC(=O)c4ccc(O)c(F)n4)C[C@H]3C2)c1 [Example 200, 1-(6-fluoro-5-hydroxypyridin-2-yl)-2-((3aR,5r,6aS)-5-hydroxy-5-(3-methoxy-benzyl)hexahydro-cyclopenta[c]pyrrol-2(1H)-yl)ethanone]
10	> 10	Cc1cc(C)cc(C[C@]2(O)C[C@H]3CN(CC(=O)c4ccc(O)cc4)C[C@H]3C2)c1 [Example 212, 2-[(3aR,5R,6aS)-5-[(3,5-dimethylphenyl)methyl]-5-hydroxy-octahydrocyclopenta[c]pyrrol-2-yl]-1-(4-hydroxyphenyl)ethan-1-one]
0.374	0.1 to 1	O=C(CN1C[C@@H]2C[C@@](O)(Cc3ccc(Cl)cc3)C[C@@H]2C1)c1ccc(O)cn1 [Example 218, 2-((3aR,5r,6aS)-5-(4-chlorobenzyl)-5-hydroxyhexaydrocyclo-penta[c]pyrrol-2(1H)-yl)-1-(5-hydroxypyridin-2-yl)ethanone]
0.111	0.1 to 1	O=C(CN1C[C@@H]2C[C@@](O)(Cc3cccs3)C[C@@H]2C1)c1ccc(O)c(F)c1 [Example 220, 1-(3-fluoro-4-hydroxyphenyl)-2-(5-hydroxy-5-(thiophen-2-ylmethyl)hexahydro-cyclopenta[c]pyrrol-2(1H)-yl)ethanone]
0.998	0.1 to 1	O=C(CN1C[C@@H]2C[C@@](O)(Cc3ccccc3F)C[C@@H]2C1)c1ccc(O)cn1 [Example 221, 2-(5-(2-fluorobenzyl)-5-hydroxyhexahydrocyclo-penta[c]pyrrol-2(1H)-yl)-1-(5-hydroxypyridin-2-yl)ethanone]
2.16	1 to 10	O=C(CN1C[C@@H]2C[C@@](O)(Cc3ccc(F)cc3F)C[C@@H]2C1)c1ccc(O)cn1 [Example 230, 2-((3aR,5r,6aS)-5-(2,4-difluorobenzyl)-5-hydroxyhexahydrocyclo-penta[c]pyrrol-2(1H)-yl)-1-(5-hydroxypyridin-2-yl)ethanone]
1.91	1 to 10	O=C(CN1C[C@@H]2C[C@@](O)(Cc3c(F)cccc3F)C[C@@H]2C1)c1ccc(O)cn1 [Example 237, 2-[(3aR,5R,6aS)-5-[(2,6-difluorophenyl)methyl]-5-hydroxy-octahydrocyclopenta[c]pyrrol-2-yl]-1-(5-hydroxypyridin-2-yl)ethan-1-one]
10	> 10	O=C(CN1C[C@@H]2C[C@@](O)(Cc3ccc(F)c(F)c3)C[C@@H]2C1)c1ccc(O)cn1 [Example 239, 2-((3aR,5r,6aS)-5-(3,4-difluorobenzyl)-5-hydroxyhexahydrocyclo-penta[c]pyrrol-2(1H)-yl)-1-(5-hydroxypyridin-2-yl)ethanone]
2.71	1 to 10	Cc1cc(F)ccc1C[C@]1(O)C[C@H]2CN(CC(=O)c3ccc(O)cn3)C[C@H]2C1 [Example 242, 2-((3aR,5r,6aS)-5-(4-fluoro-2-methylbenzyl)-5-hydroxyhexahydrocyclo-penta[c]pyrrol-2(1H)-yl)-1-(5-hydroxypyridin-2-yl)ethanone]

Second part, the molecule before the results:

SMILES	IC50 (NR1/NR2B [1]) [µM]	IC50 (NR1/NR2B [2]) [µM]
O=C(CN1C[C@@H]2C[C@@](O)(Cc3ccccc3)C[C@@H]2C1)c1ncc(O)cn1 [Example 202, 2-[(3aR,5R,6aS)-5-benzyl-5-hydroxy-octahydrocyclopenta[c]pyrrol-2-yl]-1-(5-hydroxypyrimidin-2-yl)ethan-1-one]	10	> 10
O=C(CN1C[C@@H]2C[C@@](O)(CC3CCCCC3)C[C@@H]2C1)c1ccc(O)cc1 [Example 205, 2-[(3aR,5R,6aS)-5-(cyclohexylmethyl)-5-hydroxy-octahydrocyclopenta[c]pyrrol-2-yl]-1-(4-hydroxyphenyl)ethan-1-one]	0.346	0.1 to 1
O=C(CN1C[C@@H]2C[C@@](O)(CC3CCCCC3)C[C@@H]2C1)c1ccc(O)cn1 [Example 206, 2-[(3aR,5R,6aS)-5-(cyclohexylmethyl)-5-hydroxy-octahydrocyclopenta[c]pyrrol-2-yl]-1-(5-hydroxypyridin-2-yl)ethan-1-one]	10	> 10
O=C(CN1C[C@@H]2C[C@@](O)(CC3CC3)C[C@@H]2C1)c1ccc(O)cn1 [Example 207, 2-((3aR,5r,6aS)-5-(cyclopropylmethyl)-5-hydroxyhexahydrocyclo-penta[c]pyrrol-2(1H)-yl)-1-(5-hydroxypyridin-2-yl)ethanone]	10	> 10
O=C(CN1C[C@@H]2C[C@@](O)(CC3CC3)C[C@@H]2C1)c1ccc(O)cc1 [Example 210, 2-((3aR,5r,6aS)-5-(cyclopropylmethyl)-5-hydroxyhexahydrocyclo-penta[c]pyrrol-2(1H)-yl)-1-(4-hydroxyphenyl)ethanone]	10	> 10
O=C(CN1C[C@@H]2C[C@@](O)(Cc3ccc(C(F)(F)F)cc3)C[C@@H]2C1)c1ccc(O)cn1 [Example 216, 2-[(3aR,5R,6aS)-5-hydroxy-5-{[4-(trifluoromethyl)phenyl]methyl}-octahydrocyclopenta[c]pyrrol-2-yl]-1-(5-hydroxypyridin-2-yl)ethan-1-one]	0.803	0.1 to 1
O=C(CN1C[C@@H]2C[C@@](O)(Cc3ccc(C(F)(F)F)cc3)C[C@@H]2C1)c1ccc(O)cc1 [Example 219, 2-[(3aR,5R,6aS)-5-hydroxy-5-{[4-(trifluoromethyl)phenyl]methyl}-octahydrocyclopenta[c]pyrrol-2-yl]-1-(4-hydroxyphenyl)ethan-1-one]	0.125	0.1 to 1
O=C(CN1C[C@@H]2C[C@@](O)(Cc3ccccc3F)C[C@@H]2C1)c1ccc(O)cc1 [Example 225, 2-((3aR,5r,6aS)-5-(2-fluorobenzyl)-5-hydroxyhexahydrocyclo-penta[c]pyrrol-2(1H)-yl)-1-(4-hydroxyphenyl)ethanone]	0.0273	< 0.1
O=C(CN1C[C@@H]2C[C@@](O)(Cc3ccncc3)C[C@@H]2C1)c1ccc(O)cc1 [Example 226, 2-((3aR,5r,6aS)-5-hydroxy-5-(pyridin-4-ylmethyl)hexahydrocyclo-penta[c]pyrrol-2(1H)-yl)-1-(4-hydroxyphenyl)ethanone]	3.89	1 to 10
O=C(CN1C[C@@H]2C[C@@](O)(Cc3ccccn3)C[C@@H]2C1)c1ccc(O)cc1 [Example 231, 2-((3aR,5r,6aS)-5-hydroxy-5-(pyridin-2-ylmethyl)hexahydro-cyclopenta[c]pyrrol-2(1H)-yl)-1-(4-hydroxyphenyl)ethanone]	0.965	0.1 to 1
O=C(CN1C[C@@H]2C[C@@](O)(Cc3ccccc3Cl)C[C@@H]2C1)c1ccc(O)cn1 [Example 234, 2-((3aR,5r,6aS)-5-(2-chlorobenzyl)-5-hydroxyhexahydrocyclo-penta[c]pyrrol-2(1H)-yl)-1(5-hydroxypyridin-2-yl)ethanone]	1.99	1 to 10
CS(=O)(=O)Nc1ccc(C(=O)CN2C[C@@H]3C[C@@](O)(Cc4ccccc4)C[C@@H]3C2)nc1 [Example 235, N-(6-(2-((3aR,5r,6aS)-5-benzyl-5-hydroxyhexahydrocyclo-penta[c]pyrrol-2(1H)-yl)acetyl)pyridin-3-yl)methanesulfonamide]	10	> 10
O=C(CN1C[C@@H]2C[C@@](O)(Cc3ccc(F)cc3F)C[C@@H]2C1)c1ccc(O)cc1 [Example 238, 2-(5-(2,4-difluorobenzyl)-5-hydroxyhexahydrocyclo-penta[c]pyrrol-2(1H)-yl)-1-(4-hydroxyphenyl)ethanone]	0.0516	< 0.1
O=C(CN1C[C@@H]2C[C@@](O)(Cc3c(F)cccc3F)C[C@@H]2C1)c1ccc(O)cc1 [Example 241, 2-[(3aR,5R,6aS)-5-[(2,6-difluorophenyl)methyl]-5-hydroxy-octahydrocyclopenta[c]pyrrol-2-yl]-1-(4-hydroxyphenyl)ethan-1-one]	0.118	0.1 to 1
